Common to all, as to type: cell-based
In experiment [1] the test system is Bacillus subtilis. Description: Use Example A: minimum inhibitory concentration against bacteria on Landy agar. To be noted: 3 days at 28° C., 60-70% relative atmospheric humidity. Here is the method: (§1) The MIC is determined after 3 days of storage at 28° C. and 60-70% relative atmospheric humidity.
Experiment [2] relates to Pseudomonas aeroginosa. The description is as above. The following applies: 3 days at 28° C., 60-70% relative atmospheric humidity. As for the experimental part:
as §1

The test system of experiment [3] is Aspergillus niger. As to the kind of experiment: Use Example B: minimum inhibitory concentration against fungi on malt extract agar. The following applies: 2 weeks at 28° C., 60-70% relative atmospheric humidity. As for the experimental part:
(§2) The MIC is determined after 2 weeks of storage at 28° C. and 60-70% relative atmospheric humidity.

For experiment [4], the system named is Chaetomium globusum. Described as above. The following applies: 2 weeks at 28° C., 60-70% relative atmospheric humidity. As for the experimental part:
as §2

In experiment [5] the test system is Penicillium brevicaule. The description is as above. The following applies: 2 weeks at 28° C., 60-70% relative atmospheric humidity. As for the experimental part: as §2

Experimental findings from patent publication US6835842B2, “3-nitroisoxazoles and their use in the protection of materials” (Bayer Aktiengesellschaft, priority 2000, dated 2004) are described below.

SMILES strings stand for the structures. In brackets after ≈: the same amount, converted by molar mass.

By MIC is commonly meant the least concentration at which growth counts as inhibited. In the case of `O=[N+]([O-])c1ccon1` [Example 1, 3-Nitroisoxazole], the MIC was under 40 µg/mL in experiment [1] (Bacillus subtilis, 72 h); 100 µg/mL (≈ 877 µM) in experiment [2] (Pseudomonas, 72 h); 100 µg/mL (≈ 877 µM) in experiment [3] (Aspergillus niger, 336 h); 200 µg/mL (≈ 1750 µM) in experiment [4] (Chaetomium, 336 h); 100 µg/mL (≈ 877 µM) in experiment [5] (Penicillium, 336 h).

On to `O=[N+]([O-])c1cc(-c2ccccc2)on1` [Example 2], for which the “Minimum inhibitory concentration Bacillus subtilis” value in experiment [1] is under 40 ppm. In experiment [2], the “Minimum inhibitory concentration Pseudomonas aeroginosa” value is recorded as over 400 ppm. In experiment [3], the “Minimum inhibitory concentration Aspergillus niger” value is recorded as 400 ppm. Also, the “Minimum inhibitory concentration Chaetomium globusum” value in experiment [4] was determined as 200 ppm. In addition, the “Minimum inhibitory concentration Penicillium brevicaule” value in experiment [5] was 200 ppm.

For the compound `Cc1cc([N+](=O)[O-])no1` [Example 3], the “Minimum inhibitory concentration Bacillus subtilis” value in experiment [1] is recorded as under 40 ppm. Also, the “Minimum inhibitory concentration Pseudomonas aeroginosa” value in experiment [2] is given as 200 ppm. In addition, the “Minimum inhibitory concentration Aspergillus niger” value in experiment [3] is 200 ppm. The “Minimum inhibitory concentration Chaetomium globusum” value in experiment [4] came out at 200 ppm. Also, in experiment [5], the “Minimum inhibitory concentration Penicillium brevicaule” value is on record as 200 ppm.

On to `CCCCc1cc([N+](=O)[O-])no1` [Example 4], for which, in experiment [1], the “Minimum inhibitory concentration Bacillus subtilis” value is under 40 ppm. Further, the “Minimum inhibitory concentration Pseudomonas aeroginosa” value in experiment [2] is 200 ppm. Further, the “Minimum inhibitory concentration Aspergillus niger” value in experiment [3] is reported as over 400 ppm. The “Minimum inhibitory concentration Chaetomium globusum” value in experiment [4] worked out at 400 ppm. Moreover, the “Minimum inhibitory concentration Penicillium brevicaule” value in experiment [5] is 400 ppm.

`CCOc1ccc(-c2cc([N+](=O)[O-])no2)cc1Cl` [Example 5]: the “Minimum inhibitory concentration Bacillus subtilis” value in experiment [1] is on record as under 40 ppm. The “Minimum inhibitory concentration Pseudomonas aeroginosa” value in experiment [2] is over 400 ppm. The “Minimum inhibitory concentration Aspergillus niger” value in experiment [3] came to 400 ppm. The “Minimum inhibitory concentration Chaetomium globusum” value in experiment [4] is 100 ppm. Besides, the “Minimum inhibitory concentration Penicillium brevicaule” value in experiment [5] was found to be 200 ppm.
